US20200369616A1, “ALKOXYCARBONATE ESTER PRODRUGS FOR USE AS ANTIMALARIAL AGENTS” (OREGON HEALTH & SCIENCE UNIVERSITY, priority 2019, published 2020)
Converted amounts (≈) assume the structure as drawn. “Also recorded” adds a separate entry of the source. Read-outs that look alike come from different tables or passages of the source. One block for each compound: values may come before it.

Key:
[1] = Estimation of compound solubility in sesame oil; format: physicochemical; details: room temperature, remained in solution for at least 72 hrs; for solubility: sesame oil, oil or lipid, thermodynamic from solid
Protocol: Generalized method for estimation of compound solubility in sesame oil: Sesame oil (10 μl) was dispensed into a glass vial containing 10 mg of the appropriate ELQ-300 prodrug. The mixture was vortexed and warmed (using a heat gun) to aid dissolution. The solubility of the compound was judged after the sesame oil mixture cooled to room temperature. If the compound was not completely dissolved, additional sesame oil was added in low-volume increments. Importantly, complete dissolution was assured by confirming by visual inspection that the compound remained in solution for at least 72 hrs at room temperature.

[2] = mouse microsomes; cited from earlier work
malaria-infected mice = details: cited from earlier work
[3] = tested on: multidrug resistant P. falciparum strains; details: cited from earlier work
[4] = cited by Chatterjee, CALIBR model system; cited from earlier work
[5] = rat microsomes; cited from earlier work
[6] = human microsomes; cited from earlier work
P. falciparum cyt bc1 = P. falciparum cyt bc1 (Plasmodium falciparum, UniProt Q02768); details: cited from earlier work
P. falciparum cyt bc1, sequence (Q02768 whole entry): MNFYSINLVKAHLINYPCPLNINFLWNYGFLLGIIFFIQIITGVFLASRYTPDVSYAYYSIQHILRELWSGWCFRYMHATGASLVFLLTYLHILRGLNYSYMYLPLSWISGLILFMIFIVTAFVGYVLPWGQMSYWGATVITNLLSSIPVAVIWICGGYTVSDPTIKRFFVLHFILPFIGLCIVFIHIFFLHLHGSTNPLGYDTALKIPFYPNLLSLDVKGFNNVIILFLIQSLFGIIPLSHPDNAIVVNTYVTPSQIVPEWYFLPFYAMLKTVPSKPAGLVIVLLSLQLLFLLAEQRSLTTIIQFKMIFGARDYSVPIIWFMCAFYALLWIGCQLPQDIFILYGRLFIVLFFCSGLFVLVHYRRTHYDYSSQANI

ATV resistant parasites = details: cited from earlier work
[7] = tested on: P. yoelii luciferase expressing parasites (PyXNL non-lethal strain, luc+); assay: Protection against P. yoelii sporozoite-induced infection in mice (bioluminescence imaging); format: in vivo, Plasmodium yoelii
Protocol: Animals receiving an im injection of 30 mg/kg ELQ-331 in sesame oil were challenged by inoculation with 10,000 P. yoelii luciferase expressing parasites (PyXNL non-lethal strain, luc^+) at two different time points, 48 days and 137 days post im injection (Note that separate groups of mice were used for these two challenges). For details of our experimental methods please refer to the work proposed section as well as published papers by Qigui Li (17) and Kami Kim (18). Sporozoites were obtained by dissection of infected mosquitoes, A. stephensi, and purification over glass wool with assistance from Dr. Brandon Wilder (formerly Sack), who recently joined the OHSU faculty (see letter of collaboration). Non-invasive whole animal
Bioluminescence imaging (BLI) was used to evaluate all study animals for the presence of liver stage infection using an IVIS Spectrum imager. Briefly, on the day of analysis mice received a single ip injection with a luciferin solution roughly 10 minutes before imaging. Each animal was placed on the IVIS platform with gaseous isoflurane serving as anesthetic. […] Of interest, we also challenged animals that had received an im injection (dissolved in sesame oil) of two similar ELQ-300 prodrugs, PSPS-173 and PSP6-16F.
Bioluminescent imaging (FIG. 2) was used to analyze the protective effect of im ELQ-300 prodrugs on Plasmodium yoelii liver stages. Mice were infected by inoculation with 10,000 Plasmodium yoelii GFP/luciferase expressing parasites (PyXNL non-lethal strain, luc*). As described in the narrative infected mice received sporozoite injections 48 days and 137 days following im injection with selected ELQ-300 prodrugs dissolved in sesame oil. After sporozoite challenge, mice underwent imaging for detection of bioluminescent signal after 24 and 48 hours and then again on Day 6 post-inoculation. Control mice show bioluminescent signal in the region above the liver of anesthetized mice after 24 hours which becomes more intense by 48 hours after which parasites emerge into the bloodstream as evidenced by widespread signal intensity across the entire animal by 6-days post inoculation.

[8] = tested on: patent malaria infections in mice; details: oral drug delivery, single dose; cited from earlier work
[9] = Pharmacokinetics of intramuscular (im) injections of ELQ-300 prodrugs in sesame oil in mice; format: in vivo; details: at every time point after im injection, Trial 2
Protocol: We dissolved ELQ-331 in sesame oil and administered (30 mg/kg) in a single […] injection into the caudal thigh of mice in two separate trials. Trial 1 served as a pilot study to monitor ELQ-300 blood levels for months following a single im injection. In Trial 2 we adjusted the LC-MS/MS chromatographic protocol to capture prodrug [ELQ-331] as well as [ELQ-300] with early time-points to cover the critical burst phase, a phenomenon known as “dose dumping”. […] In Trial 2, we monitored plasma [ELQ-331] and [ELQ-300] starting 6 hours after im injection. To avoid excessive blood draws, 6 different groups of 4 mice, all treated at the same time, were used in a rotating succession, one group for each time point. FIG. 1 depicts Plasma [ELQ-300], nM, following im injection in mice of 30 mg/kg ELQ-331 (prodrug) in sesame oil. […] At all time-points the [ELQ-300] concentration exceeds the Minimum Fully Effective Concentration (MEC100) of ≈60 nM. All data points are the average values±SEM.
Also shown in FIG. 5 is a composite plot of plasma [ELQ-300] from both trials with remarkable consistency in the results. ELQ-331 outperformed the CALIBR ELQ-300 prodrug (mCAR246) profiled at the 2017 ASTMH meeting by a significant margin, i.e., Day 28 bloodstream [ELQ-300] levels for mCAR246=181±59 (30 mg/kg, unknown formulation) vs. 446±22 nM (avg.±SEM) for prodrug ELQ-331 in (30 mg/kg, sesame oil).

[10] = challenge 137 days (4½ months) after single im injection in sesame oil

SMILES: CCCCCCCCOC(=O)OCOc1c(-c2ccc(Oc3ccc(OC(F)(F)F)cc3)cc2)c(C)nc2cc(OC)c(Cl)cc12 [ELQ-493, ((6-chloro-7-methoxy-2-methyl-3-(4-(4-(trifluoromethoxy)phenoxy)phenyl)quinolin-4-yl)oxy)methyl octyl carbonate]
solubility [1]: 100 mg/mL (≈ 151 mM) | melting point: 54 °C

SMILES: COc1cc2[nH]c(C)c(-c3ccc(Oc4ccc(OC(F)(F)F)cc4)cc3)c(=O)c2cc1Cl [ELQ-300, 6-Chloro-7-methoxy-2-methyl-3-[4-[4-(trifluoromethoxy)phenoxy]phenyl]-4(1H)-quinolinone]
metabolic stability [2]: metabolically stable | ED50 (malaria-infected mice; 4-day Peters Test): 0.02 mg/kg | curative dose (malaria-infected mice; 4-day Peters Test): 0.3 to 1 mg/kg | fold more effective than ATV in vivo in treatment of malaria-infected mice (malaria-infected mice; relative to ATV): 30 fold | IC50's vs. multidrug resistant P. falciparum strains [3]: low nanomolar | minimum effective concentration (plasma ELQ-300) [4]: 83 nM | metabolic stability [5]: metabolically stable | metabolic stability [6]: metabolically stable | selectivity for the parasite over the host cyt bc1 (P. falciparum cyt bc1): 10,000 fold | potency vs. ATV resistant parasites (ATV resistant parasites): equal potency

SMILES: CCCCCCCCCCOC(=O)OCOc1c(-c2ccc(Oc3ccc(OC(F)(F)F)cc3)cc2)c(C)nc2cc(OC)c(Cl)cc12 [ELQ-495, ((6-chloro-7-methoxy-2-methyl-3-(4-(4-(trifluoromethoxy)phenoxy)phenyl)quinolin-4-yl)oxy)methyl decyl carbonate]
solubility [1]: ≥ 500 mg/mL | melting point: 55 °C

SMILES: CCCCCCCOC(=O)OCOc1c(-c2ccc(Oc3ccc(OC(F)(F)F)cc3)cc2)c(C)nc2cc(OC)c(Cl)cc12 [PSP5-173]
protection against sporozoite challenge [7, 10]: partially protected | mice that developed blood stage infection ([7]; challenge 137 days after im injection): One of three

SMILES: CCCCCCCCCOC(=O)OCOc1c(-c2ccc(Oc3ccc(OC(F)(F)F)cc3)cc2)c(C)nc2cc(OC)c(Cl)cc12 [ELQ-494]
Sesame Oil Solubility [1]: 333 mg/mL

SMILES: CCCCCCCOC(=O)OCOc1c(-c2ccc(Oc3ccc(OC(F)(F)F)cc3)cc2)c(C)nc2cc(OC)c(Cl)cc12 [ELQ-492, ((6-chloro-7-methoxy-2-methyl-3-(4-(4-(trifluoromethoxy)phenoxy)phenyl)quinolin-4-yl)oxy)methyl heptyl carbonate]
solubility [1]: 71 mg/mL (≈ 110 mM)

SMILES: CCOC(=O)OCOc1c(-c2ccc(Oc3ccc(OC(F)(F)F)cc3)cc2)c(C)nc2cc(OC)c(Cl)cc12 [ELQ-331, ((6-chloro-7-methoxy-2-methyl-3-(4-(4-(trifluoromethoxy)phenoxy)phenyl)quinolin-4-yl)oxy) methyl ethyl carbonate]
protection against sporozoite challenge ([7]; challenge 48 days after single im injection in sesame oil): fully protected | protection against sporozoite challenge [7, 10]: complete protection; also recorded: fully protected | duration of protection in mice with a single im injection ([7]; single im injection): more than 4 months | bioluminescent signal (liver stage infection) ([7]; sporozoite challenge 48 days after 30 mg/kg im injection (Trial 2)): no detectable bioluminescent signal | bioluminescent signal (liver stage infection) ([7]; sporozoite challenge 137 days after 30 mg/kg im injection (Trial 1)): no detectable bioluminescent signal | solubility [1]: 125 mg/mL (≈ 216 mM) | cure of patent malaria infections in mice [8]: single dose cures | ratio of ELQ-300/ELQ-331 in plasma [9]: very large

Other lines, results leading:

Sesame Oil Solubility [1]: 71 mg/mL
SMILES: CCCCOC(=O)OCOc1c(-c2ccc(Oc3ccc(OC(F)(F)F)cc3)cc2)c(C)nc2cc(OC)c(Cl)cc12 [ELQ-489]

solubility [1]: 83 mg/mL (≈ 134 mM) | melting point: 109 °C
SMILES: CCCCCOC(=O)OCOc1c(-c2ccc(Oc3ccc(OC(F)(F)F)cc3)cc2)c(C)nc2cc(OC)c(Cl)cc12 [ELQ-490, ((6-chloro-7-methoxy-2-methyl-3-(4-(4-(trifluoromethoxy)phenoxy)phenyl)quinolin-4-yl)oxy)methyl pentyl carbonate]

solubility [1]: 100 mg/mL (≈ 158 mM) | melting point: 79 °C
SMILES: CCCCCCOC(=O)OCOc1c(-c2ccc(Oc3ccc(OC(F)(F)F)cc3)cc2)c(C)nc2cc(OC)c(Cl)cc12 [ELQ-491, ((6-chloro-7-methoxy-2-methyl-3-(4-(4-(trifluoromethoxy)phenoxy)phenyl)quinolin-4-yl)oxy)methyl hexyl carbonate]

Sesame Oil Solubility [1]: 83 mg/mL
SMILES: CCCOC(=O)OCOc1c(-c2ccc(Oc3ccc(OC(F)(F)F)cc3)cc2)c(C)nc2cc(OC)c(Cl)cc12 [ELQ-488]

Sesame Oil Solubility [1]: 91 mg/mL
SMILES: COC(=O)OCOc1c(-c2ccc(Oc3ccc(OC(F)(F)F)cc3)cc2)c(C)nc2cc(OC)c(Cl)cc12 [ELQ-487]
